Experimental data taken from US20240366624A1, “METHODS AND COMPOSITIONS FOR TREATING THROMBOTIC DISEASE” (Washington University, priority 2023, published 2024).

Experiments:
[1] = biological target: T1, MAO-A (monoamine oxidase A) (Homo sapiens, UniProt P21397); assay: MAO-A activity assay; type: biochemical; conditions: 100 μM
T1 sequence (P21397 1-527): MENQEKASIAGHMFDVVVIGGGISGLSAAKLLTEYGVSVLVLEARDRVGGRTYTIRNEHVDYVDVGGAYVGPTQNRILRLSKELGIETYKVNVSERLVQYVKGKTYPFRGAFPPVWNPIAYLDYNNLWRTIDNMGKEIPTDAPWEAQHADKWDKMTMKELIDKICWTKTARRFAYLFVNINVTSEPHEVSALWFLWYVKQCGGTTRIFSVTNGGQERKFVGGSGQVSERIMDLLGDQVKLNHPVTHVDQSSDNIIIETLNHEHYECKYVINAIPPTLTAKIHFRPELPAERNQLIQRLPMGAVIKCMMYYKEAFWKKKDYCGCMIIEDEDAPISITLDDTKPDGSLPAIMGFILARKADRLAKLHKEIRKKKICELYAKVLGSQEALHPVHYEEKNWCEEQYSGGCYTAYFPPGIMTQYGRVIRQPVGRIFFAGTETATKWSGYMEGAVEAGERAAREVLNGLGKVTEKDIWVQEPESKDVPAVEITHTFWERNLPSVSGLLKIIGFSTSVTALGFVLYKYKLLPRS

PDI = PDI (Homo sapiens, UniProt P07237); assay: PDI activity assay; type: biochemical; conditions: 100 μM
Excerpt: (§1) FIG. 17(A-F) is an exemplary embodiment of identification of novel ERO1α inhibitors by high throughput screening in accordance with the present disclosure. FIG. 17A: A scheme of an ERO1α activity assay. FIG. 17B: Screening of chemical libraries in the ERO1α activity assay. FIG. 17C: The inhibitory effect of selected compounds on ERO1α activity. FIG. 17D: The inhibitory effect of selected compounds on PDI activity. FIG. 17E: The inhibitory effect of selected compounds on H2O2 activity. FIG. 17F: The inhibitory effect of selected compounds on thiol-reacting activity. The data represent the mean±SD (n=3). *P<0.05, **P<0.01, ***P<0.001, and ****P<0.0001 vs. vehicle control, Student's t-test.
(§2) To identify a novel ERO1α inhibitor, 5800 compounds were screened using an ERO1α activity assay (FIG. 17A and FIG. 17B). […] The selected compounds were further tested in assays measuring PDI, antioxidant, and thiol-reacting activities (FIG. 17D through FIG. 17F). […] B12 inhibited P-selectin exposure and αIIbβ3 activation in agonist-activated mouse and human platelets in a concentration-dependent manner (FIG. 18B through FIG. 18E).

ERO1α = biological target: T2, ERO1α (Homo sapiens, UniProt Q96HE7); assay: ERO1α activity assay; type: biochemical; conditions: 20 μM
T2 sequence (Q96HE7 24-468): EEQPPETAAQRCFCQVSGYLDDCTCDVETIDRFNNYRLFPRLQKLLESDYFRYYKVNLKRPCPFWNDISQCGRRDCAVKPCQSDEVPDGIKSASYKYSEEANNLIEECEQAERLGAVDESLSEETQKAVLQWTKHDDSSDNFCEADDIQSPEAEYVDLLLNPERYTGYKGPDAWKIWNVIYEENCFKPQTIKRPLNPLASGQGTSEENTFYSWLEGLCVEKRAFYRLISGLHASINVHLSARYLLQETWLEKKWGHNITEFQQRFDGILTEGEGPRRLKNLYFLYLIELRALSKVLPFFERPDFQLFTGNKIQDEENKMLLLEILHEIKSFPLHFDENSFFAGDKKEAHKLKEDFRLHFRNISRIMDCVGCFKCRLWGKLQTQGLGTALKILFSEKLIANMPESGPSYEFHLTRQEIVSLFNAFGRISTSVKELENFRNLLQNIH
Excerpt: as §1, §2

[2] = thiol-reacting (GSH) activity assay; type: biochemical; conditions: 100 μM
Excerpt: as §1, §2

[3] = H2O2 (antioxidant) activity assay; type: biochemical; conditions: 100 μM
Excerpt: as §1, §2

Ero1α-null platelets = assay: Platelet aggregation, Ero1α-null platelets; type: cell-based, mouse; conditions: 50 μg/mL protein, 0.025 U/mL thrombin
Experimental: FIG. 7(A-L) is an exemplary embodiment of crucial intracellular ERO1α (endoplasmic reticulum oxidoreductase 1a) for platelet activation, aggregation, and thrombus formation in accordance with the present disclosure. FIG. 7A: Ex vivo platelet thrombus formation in a flow chamber assay. Adherent and aggregated platelets were stained with rhodamine-conjugated phalloidin and imaged by confocal microscopy. Representative images (bar, 10 μm). Surface coverage and thrombus volume were measured (mean±SD, n=4). FIG. 7(B-E): Aggregation and ATP secretion of wild type (WT) and Ero1α-null platelets were induced by 0.025 U/mL thrombin, 0.05 μg/mL CRP (collagen-related peptide), 0.5 μM A23187, or 2.5 μM ADP. Platelet aggregation (i) and ATP secretion (ii). FIG. 7F: Ero1α-null platelets were pretreated with 50 μg/mL wtERO1α or wtPDI and then with 0.025 U/mL thrombin. Quantification graphs of aggregation and ATP secretion are presented as the mean±SD (n=3-4). FIG. 7G and FIG. 7H: P-selectin exposure and αIIbβ3 integrin activation of WT and Ero1α-null platelets were analyzed by flow cytometry. The data are presented as the geometric mean fluorescence intensity (MFI) value (mean±SD, n=3-4). FIG. 7I: WT and Ero1α-null platelets were treated with or without 0.025 U/mL thrombin for 1 minute in an aggregometer. The lysates were immunoprecipitated with control IgG or anti-β3 antibodies and subjected to immunoblotting with antibodies against talin1 or β3 and densitometric analysis (mean±SD, n=3). FIG. 7J: WT and Ero1α-null platelets were treated with or without 0.025 U/mL thrombin, followed by transmission electron microscopy. The original magnification was 34 800, and the extension was 313 000. Bar, 500 nm. FIG. 7K and FIG. 7L: Intravital microscopy was performed to determine the effect of 15E9 (1-3 μg/g body weight [BW]) and a blocking anti-PDI (protein disulfide isomerase) antibody (BD34, 3 μg/g BW) on platelet thrombus formation and fibrin generation at the site of laser-induced cremaster arteriolar injury (n=27-40 arterioles in 6 mice per group). The n indicates biological replicates. P values determined by unpaired Student t test (FIG. 7(A-E) and FIG. 7(G-1)), ANOVA and Dunnett test (FIG. 7F), or Mann-Whitney U test (FIG. 7K and FIG. 7L).
FIG. 9(A-C) is an exemplary embodiment of EN460 inhibiting thrombin-induced aggregation of mouse and human platelets in accordance with the present disclosure. […] P values determined by ANOVA and Dunnett's test (FIG. 9(A-B)) or Student's t-test (FIG. 9C).
FIG. 10(A-E) is an exemplary embodiment of 15E9 not affecting platelet activation and aggregation in accordance with the present disclosure. […] P values determined by unpaired Student's t-test (vs. mIgG1). […]

PDI, sequence (P07237 18-508, species assumed): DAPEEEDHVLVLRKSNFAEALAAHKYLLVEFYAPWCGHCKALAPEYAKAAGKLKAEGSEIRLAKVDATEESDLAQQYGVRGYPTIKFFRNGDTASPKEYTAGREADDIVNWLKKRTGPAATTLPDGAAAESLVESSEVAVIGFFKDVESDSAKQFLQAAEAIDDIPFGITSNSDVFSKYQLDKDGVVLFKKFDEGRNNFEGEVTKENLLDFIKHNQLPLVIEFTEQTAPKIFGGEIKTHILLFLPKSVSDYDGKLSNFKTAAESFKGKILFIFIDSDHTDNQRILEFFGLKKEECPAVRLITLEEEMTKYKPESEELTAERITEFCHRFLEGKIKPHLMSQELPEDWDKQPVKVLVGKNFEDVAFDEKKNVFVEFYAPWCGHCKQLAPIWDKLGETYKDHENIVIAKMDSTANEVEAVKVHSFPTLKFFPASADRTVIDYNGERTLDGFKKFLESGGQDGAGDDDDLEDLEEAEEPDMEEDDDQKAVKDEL

Compound | MAO-A inhibition at 100 μM (%) [1] [%] | PDI inhibition at 100 μM (%) (PDI) | ERO1α inhibition at 20 μM (%) (ERO1α) | GSH inhibition at 100 μM (%) [2] [%] | H2O2 inhibition at 100 μM (%) [3] [%] | rescue of the defect in Ero1α-null platelet aggregation (Ero1α-null platelets)
O=C(COc1nc2ccccc2s1)N1c2ccccc2Sc2ccccc21 [B12-22] | 28.8 ± 6 | 38.5 ± 8 | 60.5 ± 8 | 62.5 ± 7 | 4.9 ± 1 | –
wtPDI: recombinant wild-type PDI | – | – | – | – | – | did not rescue
